Series [1] deals with T1, Sphingomyelin phosphodiesterase (Homo sapiens, UniProt P17405).
T1 sequence (P17405 whole entry): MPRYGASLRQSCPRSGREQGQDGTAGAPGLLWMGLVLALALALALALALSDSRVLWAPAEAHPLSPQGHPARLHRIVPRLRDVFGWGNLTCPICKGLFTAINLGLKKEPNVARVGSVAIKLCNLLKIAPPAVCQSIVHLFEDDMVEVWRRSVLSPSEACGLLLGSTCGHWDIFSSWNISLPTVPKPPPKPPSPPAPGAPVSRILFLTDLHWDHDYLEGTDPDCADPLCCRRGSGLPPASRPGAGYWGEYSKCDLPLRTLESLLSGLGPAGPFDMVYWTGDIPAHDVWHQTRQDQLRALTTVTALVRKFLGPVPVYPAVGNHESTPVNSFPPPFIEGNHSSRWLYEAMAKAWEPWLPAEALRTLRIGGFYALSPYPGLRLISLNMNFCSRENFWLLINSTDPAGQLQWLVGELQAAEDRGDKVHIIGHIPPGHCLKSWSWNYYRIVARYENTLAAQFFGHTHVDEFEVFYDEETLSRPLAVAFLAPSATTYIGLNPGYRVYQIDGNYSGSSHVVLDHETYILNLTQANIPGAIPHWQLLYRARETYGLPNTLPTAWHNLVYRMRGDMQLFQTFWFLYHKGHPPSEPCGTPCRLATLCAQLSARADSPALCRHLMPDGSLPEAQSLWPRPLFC
The series can be described thus: Inhibition of recombinant human aSMase (62 to 628 residues) using HMU-PC as substrate incubated for 2 hrs by fluorescence based assay.

The next series concerns HUVEC. Put plainly: Cytotoxicity against HUVEC cells assessed as cell growth inhibition at 0.5 to 20 uM incubated for 24 to 48 hrs by MTT assay. To be noted: human, dose lower 0.5 µM, time lower 24 hrs, dose upper 20 µM, time upper 48 hrs. It counts as toxicity, cell-based. For orientation: Tetrazolium dyes change colour on reduction, which living cells bring about.
The test system of series [2] is Mus musculus. The series can be described thus: Antiatherosclerotic activity in high-fat diet fed ApoE-/- mouse assessed as reduction in aortic arch lipid accumulation at 20 mg/kg measured after 8 weeks. It counts as functional, organism-based.
Series [3] relates to Mus musculus. Put plainly: Antiatherosclerotic activity in high-fat diet fed ApoE-/- mouse assessed as reduction in plasma total cholesterol level at 20 mg/kg measured after 8 weeks. It counts as functional, organism-based.
Series [4] relates to Mus musculus. The series can be described thus: Antiatherosclerotic activity in high-fat diet fed ApoE-/- mouse assessed as reduction in plasma total triacylglycerol level at 20 mg/kg measured after 8 weeks. It counts as functional, organism-based.
The test system of series [5] is Mus musculus. The series can be described thus: Antiatherosclerotic activity in high-fat diet fed ApoE-/- mouse assessed as reduction in plasma LDL-C level at 20 mg/kg measured after 8 weeks. It is filed as functional, organism-based.
Series [6] concerns Mus musculus. Put plainly: Antiatherosclerotic activity in high-fat diet fed ApoE-/- mouse assessed as reduction in plasma Ox-LDL-C level at 20 mg/kg measured after 8 weeks. It is filed as functional, organism-based.
The target in series [7] is T2, Sphingomyelin phosphodiesterase (Homo sapiens) (UniProt P17405).
T2 sequence (whole entry): T1 sequence (P17405 whole entry)
Put plainly: Inhibition of recombinant human aSMase (62 to 628 residues) using HMU-PC as substrate at 50 uM incubated for 2 hrs by fluorescence based assay.

The target of series [8] is T2, Sphingomyelin phosphodiesterase (Homo sapiens). Put plainly: Inhibition of recombinant human aSMase (62 to 628 residues) using HMU-PC as substrate at 50 uM incubated for 2 hrs by fluorescence based assay relative to control.
The target is the same in series [9]. The series can be described thus: Inhibition of recombinant human aSMase (62 to 628 residues) using HMU-PC as substrate at 25 uM incubated for 2 hrs by fluorescence based assay relative to control.
A short description of series [10]: Cytotoxicity against HUVEC cells assessed as cell growth inhibition incubated for 24 hrs by MTT assay. It counts as toxicity, cell-based. To be noted: human.
Series [11] can be described thus: Cytotoxicity against HUVEC cells assessed as cell growth inhibition incubated for 48 hrs by MTT assay. It is filed as toxicity, cell-based. To be noted: human.
Series [12] in a line: Inhibition of rat brain aSMase using HMU-PC as substrate incubated for 3 hrs by fluorescence based assay. It counts as tissue-based.

Structures are written as SMILES. The source made the active and inactive calls. The calls are words filed in the database; no cut-off is given here.

Regarding `O=C(NO)c1noc(-c2ccc(Br)cc2)n1`, in [1], the 50% inhibitory concentration (IC50) (as a rule, the concentration that inhibits the measured activity by half) was 37.3 µM.

As to `O=C(NO)c1nc(COc2ccc(-c3ccccc3)cc2)no1`, the IC50 in series [1] was found to be 0.83 µM.

Take `CCCCOc1ccc(-c2cc(C(=O)NO)no2)cc1`: the concentration for half-maximal inhibition (IC50) in [1] came to 1 µM.

Consider `O=C(NO)c1noc(COc2ccc(-c3ccccc3)cc2)n1`, for which the IC50 in [1] came to 4.91 µM.

On to `O=C(NO)c1nc(-c2ccc(COc3ccc(Cl)cc3)cc2)no1`, for which, in [1], the concentration for half-maximal inhibition (IC50) stood at 4.2 µM.

Turning to `CC(C)COc1ccc(-c2cc(C(=O)NO)no2)cc1`, the IC50 in [1] was found to be 6.73 µM.

Turning to `CC(C)COc1ccc(-c2nnc(C(=O)NO)o2)cc1`, the IC50 in series [1] is 0.81 µM. In addition, the Activity result in the series with HUVEC is reported as “Non-Toxic”.

For `O=C(NO)c1cc(-c2ccc(OCc3ccccc3)cc2)on1`, in [1], the IC50 came to 7.9 µM.

Consider `CCC(C)(C)C(=O)O[C@H]1C[C@@H](C)C=C2C=C[C@H](C)[C@H](CC[C@@H]3C[C@@H](O)CC(=O)O3)[C@H]21`, for which the result in the series with Mus musculus [2], in the series on Mus musculus [3], with Mus musculus [4] and in the series on Mus musculus [5] was Active. Besides, the result with Mus musculus [6] was inactive.

Turning to `O=C(NO)c1nc(-c2ccc(CNc3ccc(Cl)cc3)cc2)no1`, in series [7], the inhibition (commonly how much of the control response was suppressed) was “inactive”.

Consider `O=C(NO)c1nc(-c2ccc(COc3cccc(Cl)c3)cc2)no1`, for which the 50% inhibitory concentration (IC50) in series [1] was 8.4 µM.

On to `O=C(NO)c1nc(-c2ccc(CNc3ccc(C(F)(F)F)cc3)cc2)no1`, for which the inhibition entry in series [7] is “inactive”.

Take `O=C(NO)c1cc(-c2ccc(-c3ccc(Cl)cc3)cc2)on1`: in [1], the IC50 is more than 50 µM. Further, in series [8], the inhibition is less than 50%.

Regarding `COc1cc(-c2nnc(C(=O)NO)o2)ccc1OCC(C)C`, the inhibition in series [9] came out at 55%.

`CCCCOc1ccc(-c2nnc(C(=O)NO)o2)cc1`: the inhibition result in series [7] was “inactive”. The inhibition in series [9] was 13%.

Consider `O=C(NO)c1nnc(-c2ccc(-c3ccc(Cl)cc3)cc2)o1`, for which the IC50 in [1] worked out at 0.51 µM.

As to `O=C(NO)c1nnc(-c2ccc(OCc3ccccc3)cc2)o1`, the inhibition in series [9] was determined as 3%.

Consider `O=C(Cc1noc(COc2ccc(-c3ccc(Cl)cc3)cc2)n1)NO`, for which the concentration for half-maximal inhibition (IC50) in [1] turned out to be 18.7 µM.

Take `O=C(NO)c1nc(-c2ccc(COc3ccccc3Cl)cc2)no1`: the inhibition result in series [7] is “inactive”.

For the molecule `O=C(Cc1noc(-c2ccc(Br)cc2)n1)NO`, the half-inhibitory concentration (IC50) in series [1] was more than 50 µM. In addition, the inhibition in series [8] is less than 50%.

Consider `O=C(Cc1nc(-c2ccc(COc3ccc(Br)cc3)cc2)no1)NO`, for which the inhibition result in series [7] is “inactive”.

On to `O=C(NO)c1nc(-c2ccc(COc3ccc(C(F)(F)F)cc3)cc2)no1`, for which the IC50 in [1] was determined as 8.1 µM. The IC50 at 24 h in series [10] turned out to be 79.1 µM. The half-maximal inhibitory concentration (IC50) at 48 h in series [11] was 84.3 µM.

In the case of `O=C(Cc1noc(-c2ccc(-c3ccc(Cl)cc3)cc2)n1)NO`, in series [1], the concentration for half-maximal inhibition (IC50) was more than 50 µM. In addition, the inhibition in [8] is less than 50%.

As to `O=C(CCCOc1ccc(-c2ccc(Cl)cc2)cc1)NO`, the inhibition result in series [7] is “inactive”.

In the case of `O=C(NO)c1nc(-c2ccc(COc3ccccc3)cc2)no1`, in [1], the half-inhibitory concentration (IC50) stood at 3.3 µM.

Consider `COc1cc(-c2nnc(C(=O)NO)o2)ccc1OCc1ccccc1`, for which the inhibition in series [9] is 60%.

As to `O=C(NO)c1nc(COc2ccc(-c3ccc(Cl)cc3)cc2)no1`, in series [1], the IC50 turned out to be 0.47 µM.

For the molecule `O=C(Cc1nc(-c2ccc(COc3ccccc3)cc2)no1)NO`, the inhibition result in series [7] was “inactive”.

For the molecule `O=C(CCCOc1ccc(-c2cccnc2)cc1)NO`, in [7], the inhibition result was “inactive”.

With `CCCCOc1ccc(-c2nnc(C(=O)NO)o2)cc1OC`, the inhibition in series [9] was 57%.

In the case of `O=C(Cc1noc(COc2ccc(-c3ccccc3)cc2)n1)NO`, in series [1], the half-maximal inhibitory concentration (IC50) is more than 50 µM. The inhibition in series [8] was less than 50%.

`COc1c(O)cc2oc3cc(O)c(CC=C(C)C)c(O)c3c(=O)c2c1CC=C(C)C` [MANGOSTIN] had an IC50 in series [12] of 14.1 µM.

Values taken from ChEMBL document CHEMBL5380809, “Discovery of Novel N-Hydroxy-1,2,4-oxadiazole-5-formamides as ASM Direct Inhibitors for the Treatment of Atherosclerosis” (J Med Chem, 2023).
